# Source: ChEMBL document CHEMBL5550171, “Poly (ADP-ribose) polymerase (PARP) inhibitors as anticancer agents: An outlook on clinical progress, synthetic strategies, biological activity, and structure-activity relationship” (Eur J Med Chem, 2024)
# How the values were obtained:
# [1] = biological target: T1, Poly [ADP-ribose] polymerase 1 (Homo sapiens, UniProt P09874); test: Inhibition of human recombinant PARP-1 by ELISA assay
# MDA-MB-436 [2] = test: Antiproliferative activity against human MDA-MB-436 cells assessed as reduction in cell viability incubated for 72 hrs by MTT assay; type: functional, cell-based; conditions: MDA-MB-436, 72 h
# [3] = biological target: T1, Poly [ADP-ribose] polymerase 1; test: Inhibition of human recombinant PARP1 at 10 uM relative to control
# [4] = biological target: T1, Poly [ADP-ribose] polymerase 1; test: Inhibition of human recombinant PARP1 at 1 uM relative to control
# [5] = biological target: T1, Poly [ADP-ribose] polymerase 1; test: Inhibition of human recombinant PARP1 at 0.1 uM relative to control
# [6] = Antiproliferative activity against human MCF10A cells assessed as inhibition of cell growth incubated for 72 hrs by alamar blue assay; type: functional, cell-based; conditions: MCF10AT1, 72 h
# [7] = biological target: T1, Poly [ADP-ribose] polymerase 1; test: Inhibition of human recombinant PARP1 at 100 uM relative to control
# [8] = biological target: T1, Poly [ADP-ribose] polymerase 1; test: Inhibition of human recombinant PARP1 at 0.01 uM relative to control
# HCT-116 = test: Cytotoxicity against human HCT-116 cells assessed as reduction in cell growth incubated for 96 hrs by MTT assay; type: functional, cell-based; conditions: HCT-116, 96 h
# MCF7 [9] = test: Cytotoxicity against human MCF7 cells assessed as reduction in cell growth incubated for 72 hrs by alamar blue reagent based analysis; type: functional; conditions: MCF7, 72 h
# MDA-MB-231 [10] = test: Cytotoxicity against human MDA-MB-231 cells assessed as reduction in cell growth incubated for 72 hrs by alamar blue reagent based analysis; type: functional; conditions: MDA-MB-231, 72 h
# MDA-MB-436 [11] = test: Cytotoxicity against human MDA-MB-436 cells; type: functional, cell-based
# [12] = biological target: T1, Poly [ADP-ribose] polymerase 1; test: Inhibition of human recombinant PARP1 expressed in Escherichia coli BL21(DE3)
# MCF7 [13] = test: Antiproliferative activity against human MCF7 cells assessed as reduction in cell growth measured after 72 hrs by MTT assay; type: functional, cell-based; conditions: MCF7, 72 h
# [14] = biological target: T1, Poly [ADP-ribose] polymerase 1; test: Inhibition of PARP1 (unknown origin)
# HCC1395 = test: Anticancer activity against human HCC1395 cells assessed as cell growth inhibition; type: functional, cell-based
# MDA-MB-157 = test: Anticancer activity against human MDA-MB-157 cells assessed as cell growth inhibition; type: functional, cell-based
# MDA-MB-436 [15] = test: Antiproliferative activity against human MDA-MB-436 cells; type: functional, cell-based
# [16] = biological target: Protein mono-ADP-ribosyltransferase PARP3 (Homo sapiens, UniProt Q9Y6F1); test: Inhibition of PARP3 (unknown origin)
# Protein mono-ADP-ribosyltransferase PARP3, sequence (Q9Y6F1 whole entry): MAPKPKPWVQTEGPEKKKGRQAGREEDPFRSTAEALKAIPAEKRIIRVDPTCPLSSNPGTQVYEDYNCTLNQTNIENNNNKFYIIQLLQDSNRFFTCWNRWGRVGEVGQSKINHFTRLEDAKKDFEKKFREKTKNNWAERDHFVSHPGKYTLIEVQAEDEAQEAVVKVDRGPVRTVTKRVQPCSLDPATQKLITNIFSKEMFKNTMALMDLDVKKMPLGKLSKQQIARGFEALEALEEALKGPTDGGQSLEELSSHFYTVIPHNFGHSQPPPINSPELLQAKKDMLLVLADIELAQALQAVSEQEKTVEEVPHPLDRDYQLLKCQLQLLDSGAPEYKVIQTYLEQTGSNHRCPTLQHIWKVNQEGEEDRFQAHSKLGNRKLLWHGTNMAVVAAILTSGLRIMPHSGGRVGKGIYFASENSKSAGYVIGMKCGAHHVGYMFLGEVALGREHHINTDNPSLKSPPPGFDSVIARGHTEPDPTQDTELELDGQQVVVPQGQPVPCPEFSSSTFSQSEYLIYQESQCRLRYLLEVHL
# [17] = biological target: T2, Poly [ADP-ribose] polymerase 2 (Homo sapiens, UniProt Q9UGN5); test: Inhibition of PARP2 (unknown origin)
# T2 sequence (Q9UGN5 whole entry): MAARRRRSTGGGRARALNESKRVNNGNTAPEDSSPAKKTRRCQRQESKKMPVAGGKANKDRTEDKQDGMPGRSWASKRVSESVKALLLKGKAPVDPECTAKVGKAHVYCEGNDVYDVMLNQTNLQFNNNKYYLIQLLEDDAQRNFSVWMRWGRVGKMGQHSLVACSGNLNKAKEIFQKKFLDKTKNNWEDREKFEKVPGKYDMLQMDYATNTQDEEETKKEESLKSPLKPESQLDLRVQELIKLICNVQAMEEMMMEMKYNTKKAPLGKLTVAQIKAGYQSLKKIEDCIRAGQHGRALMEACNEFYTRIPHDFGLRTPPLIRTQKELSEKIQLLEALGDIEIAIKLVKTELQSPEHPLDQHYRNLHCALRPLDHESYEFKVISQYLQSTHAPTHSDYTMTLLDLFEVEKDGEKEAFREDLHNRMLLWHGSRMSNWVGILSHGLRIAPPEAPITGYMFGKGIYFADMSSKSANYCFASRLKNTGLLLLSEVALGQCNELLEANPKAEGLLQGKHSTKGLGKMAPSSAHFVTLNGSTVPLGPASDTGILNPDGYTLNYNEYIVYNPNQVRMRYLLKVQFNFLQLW
# Caco-2 = test: Cytotoxicity against human Caco-2 cells assessed as inhibition of cell growth incubated for 72 hrs by CCK-8 assay; type: functional, cell-based; conditions: Caco-2, 72 h
# [18] = Cytotoxicity against African green monkey Vero cells; type: toxicity, cell-based, Chlorocebus sabaeus
# MCF7 [19] = test: Anticancer activity against human MCF7 cells assessed as reduction in cell viability; type: functional, cell-based
# MDA-MB-436 [20] = test: Antiproliferative activity against human MDA-MB-436 cells assessed as reduction in cell viability; type: functional, cell-based
# [21] = biological target: T2, Poly [ADP-ribose] polymerase 2; test: Inhibition of PARP2 (unknown origin) at 10 uM relative to control
# MCF7 [22] = test: Cytotoxicity against human MCF7 cells assessed as reduction in cell viability incubated for 24 hrs by MTS assay; type: functional, cell-based; conditions: MCF7, 24 h
# MDA-MB-231 [23] = test: Cytotoxicity against human MDA-MB-231 cells assessed as reduction in cell viability incubated for 24 hrs by MTS assay; type: functional, cell-based; conditions: MDA-MB-231, 24 h
# [24] = Microsomal stability in rat liver microsomes assessed as half life measured for 48 hrs by LC-MS/MS analysis; type: ADME, Microsome
# [25] = biological target: T2, Poly [ADP-ribose] polymerase 2; test: Inhibition of PARP2 (unknown origin) using biotinylated NAD+ as substrate by luminescence assay
# [26] = Microsomal stability in human liver microsomes assessed as half life measured for 48 hrs by LC-MS/MS analysis; type: ADME, Microsome
# [27] = biological target: T1, Poly [ADP-ribose] polymerase 1; test: Inhibition of PARP1 (unknown origin) at 10 uM relative to control
# MDA-MB-436 [28] = test: Cytotoxicity against human MDA-MB-436 cells assessed as reduction in cell viability incubated for 24 hrs by MTS assay; type: functional, cell-based; conditions: MDA-MB-436, 24 h
# [29] = biological target: T1, Poly [ADP-ribose] polymerase 1; test: Inhibition of PARP1 (unknown origin) using biotinylated NAD+ as substrate by luminescence assay
# [30] = biological target: T1, Poly [ADP-ribose] polymerase 1; test: Inhibition of human PARP1
# T1 sequence (P09874 whole entry): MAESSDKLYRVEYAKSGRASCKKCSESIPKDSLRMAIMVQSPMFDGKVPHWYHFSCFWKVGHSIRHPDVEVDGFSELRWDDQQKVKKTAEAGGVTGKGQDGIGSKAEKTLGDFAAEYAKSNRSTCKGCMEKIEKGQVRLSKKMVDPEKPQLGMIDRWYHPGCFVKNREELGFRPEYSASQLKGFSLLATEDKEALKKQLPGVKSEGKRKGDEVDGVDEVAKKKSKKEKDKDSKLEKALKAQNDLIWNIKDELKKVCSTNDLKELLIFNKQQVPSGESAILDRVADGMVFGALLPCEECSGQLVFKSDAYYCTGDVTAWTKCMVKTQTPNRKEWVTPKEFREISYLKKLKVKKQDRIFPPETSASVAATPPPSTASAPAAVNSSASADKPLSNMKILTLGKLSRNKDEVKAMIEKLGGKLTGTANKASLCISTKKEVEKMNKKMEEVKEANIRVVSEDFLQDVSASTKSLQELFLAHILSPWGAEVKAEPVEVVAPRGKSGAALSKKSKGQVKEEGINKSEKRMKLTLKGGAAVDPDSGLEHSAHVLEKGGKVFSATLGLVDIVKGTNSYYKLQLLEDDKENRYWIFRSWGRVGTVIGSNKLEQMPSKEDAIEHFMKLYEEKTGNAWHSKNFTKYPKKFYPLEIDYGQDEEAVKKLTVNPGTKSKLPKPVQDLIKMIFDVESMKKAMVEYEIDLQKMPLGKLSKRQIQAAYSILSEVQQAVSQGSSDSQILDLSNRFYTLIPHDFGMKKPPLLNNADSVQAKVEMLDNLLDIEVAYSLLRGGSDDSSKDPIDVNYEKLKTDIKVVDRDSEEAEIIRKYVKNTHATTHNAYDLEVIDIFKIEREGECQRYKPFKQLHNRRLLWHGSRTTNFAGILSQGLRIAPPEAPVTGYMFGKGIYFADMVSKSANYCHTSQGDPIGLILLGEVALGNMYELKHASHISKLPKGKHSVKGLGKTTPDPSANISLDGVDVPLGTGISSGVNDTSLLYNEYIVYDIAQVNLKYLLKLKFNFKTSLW
smiles,measurement,setting,value
NC(=O)c1cccc2[nH]c(-c3ccc(C(=O)N4CCN(C(=O)c5ccc(Br)o5)CC4)cc3)nc12,IC50,[1],0.023 µM
same,IC50,MDA-MB-436 [2],43.6 µM
COc1ccc(CSc2nccc(OCC(=O)N3CCN(c4ccc(C)cc4)CC3)n2)cc1,inhibition,[3],70.3%
same,inhibition,[4],29.8%
same,inhibition,[5],15.6%
same,IC50,[6],46.9 µM
same,inhibition,[7],85.8%
same,inhibition,[8],0.5%
O=c1[nH]c2c(c(=O)[nH]1)C(c1cccs1)c1[nH]c(=S)n(-c3ccccc3)c(=O)c1O2 (stereo not given),IC50,HCT-116,46 µM
COc1ccc(Cc2nnc(-c3cccc(-c4cccc(C=O)c4)c3)o2)cc1,IC50,MCF7 [9],1.4 µM
same,IC50,MDA-MB-231 [10],29.3 µM
COc1ccc(/C=C2\CC3(CC4C2=NN(C(N)=S)C4c2ccc(OC)cc2)OCCO3)cc1 (stereo not given),IC50,MDA-MB-436 [11],0.67 µM
Cc1ccoc1C(=O)N1CCN(C(=O)c2ccc(-c3nc4c(C(N)=O)cccc4[nH]3)cc2)C(C)C1 (stereo not given),IC50,[12],0.0163 µM
COc1ccc(CSc2nccc(OCC(=O)N3CCN(c4cccc(Cl)c4Cl)CC3)n2)cc1,inhibition,[3],53%
same,inhibition,[4],20.6%
same,inhibition,[5],2%
same,IC50,[6],18.2 µM
same,inhibition,[7],82.1%
same,inhibition,[8],1.3%
Nc1nc(S)nc2c1Oc1[nH]c(=O)[nH]c(=O)c1C2c1cccs1 (stereo not given),IC50,HCT-116,9.31 µM
O=C(Cn1c(=S)n(-c2ccccc2)c(=O)c2ccccc21)Nc1ccc2c(c1)C(=O)c1ccccc1C2,IC50,MCF7 [13],11.4 µM
same,IC50,[14],0.17 µM
Cn1ncnc1[C@H]1c2n[nH]c(=O)c3cc(F)cc(c23)N[C@@H]1c1ccc(F)cc1 [TALAZOPARIB],IC50,HCC1395,0.00046 µM
same,IC50,MDA-MB-157,0.00037 µM
O=C(c1cc(Cc2n[nH]c(=O)c3ccccc23)ccc1F)N1CCN(C(=O)C2CC2)CC1 [OLAPARIB],IC50,MCF7 [9],3.2 µM
same,IC50,MDA-MB-436 [15],8.9 µM
same,IC50,MDA-MB-231 [10],70.2 µM
CCN(CC)CCC(=O)Nc1ccc(-c2nc3cc(Cl)ccc3o2)cc1,IC50,[16],0.057 µM
COc1ccc(Cc2nnc(-c3cccc(-c4ccnc(F)c4C)c3)o2)cc1OC,IC50,MCF7 [9],15.3 µM
same,IC50,MDA-MB-231 [10],19.2 µM
O=C1N[C@H](C2CC2)[C@@H](C(=O)N2CCC(N3CCCCC3)CC2)c2ccc(F)cc21,IC50,[17],4.3 µM
same,IC50,[14],22 µM
O=C(Cn1c(=S)n(-c2ccccc2)c(=O)c2ccccc21)Nc1cccc2ccccc12,IC50,MCF7 [13],10.6 µM
same,IC50,[14],0.14 µM
CCOC(=O)CO/N=C(\N)c1ccccc1,IC50,Caco-2,0.43 µM
same,IC50,[18],6.76 µM
same,IC50,MCF7 [19],0.8 µM
NC(=O)c1cccc2[nH]c(-c3ccc(C(=O)N4CCN(C(=O)c5ccc(Cl)o5)CC4)cc3)nc12,IC50,[1],0.043 µM
same,IC50,MDA-MB-436 [2],36.7 µM
CCOC(=O)CO/N=C(\N)c1ccc(C)cc1,IC50,Caco-2,0.4 µM
same,IC50,[18],0.48 µM
same,IC50,MCF7 [19],0.32 µM
Cc1ccoc1C(=O)N1CCCN(C(=O)c2ccc(-c3nc4c(C(N)=O)cccc4[nH]3)cc2)CC1,IC50,MDA-MB-436 [20],25.4 µM
COc1ccc(/C=C2\CC3(CC4C2OC(=O)C(C(C)=O)C4c2ccc(OC)cc2)OCCO3)cc1 (stereo not given),IC50,MDA-MB-436 [11],7.47 µM
NC(=O)c1cccc2[nH]c(C3CCN(C4CCC(F)(F)CC4)CC3)nc12,inhibition,[21],90.8%
same,IC50,MCF7 [22],60.8 µM
same,IC50,MDA-MB-231 [23],96.8 µM
same,half-life,[24],> 16.7 h
same,IC50,[25],0.00158 µM
same,half-life,[26],4.38 h
same,inhibition,[27],47.9%
same,IC50,MDA-MB-436 [28],28.3 µM
same,IC50,[29],0.0043 µM
NC(=O)c1cccc2[nH]c(-c3ccc(C(=O)NC4CCN(C(=O)c5ccc(Cl)o5)C4)cc3)nc12 (stereo not given),IC50,[12],0.00865 µM
Cc1c(C(=O)/C=C/c2cccc([N+](=O)[O-])c2)nnn1-c1ccc(Br)cc1,IC50,[30],0.00315 µM
